Legend:
[1] = Henry solubility constant Hcp at 333 K (mol/(m3 Pa)); conditions: reference: Severit (1997)
[2] = Henry solubility constant Hcp at 290 K (mol/(m3 Pa)); conditions: reference: Disselkamp et al. (1999)
[3] = Henry solubility constant Hcp at 275 K (mol/(m3 Pa)); conditions: reference: Katrib et al. (2001)
[4] = Henry solubility constant Hcp at 298.15 K (mol/(m3 Pa))
[5] = Henry solubility constant Hcp at 287 K (mol/(m3 Pa)); conditions: reference: Hempel (1901)
[6] = Henry solubility constant Hcp at 313 K (mol/(m3 Pa)); conditions: reference: Vitenberg et al. (1974)
[7] = Henry solubility constant Hcp at 301 K (mol/(m3 Pa)); conditions: reference: Nelson and Hoff (1968)
[8] = Henry solubility constant Hcp at 310 K (mol/(m3 Pa)); conditions: reference: Power and Stegall (1970)
[9] = Henry solubility constant Hcp at 273 K (mol/(m3 Pa)); conditions: reference: Razumovskii and Zaikov (1971)
[10] = Henry solubility constant Hcp at 293 K (mol/(m3 Pa)); conditions: reference: da Silva et al. (1980)
[11] = Henry solubility constant Hcp at 283 K (mol/(m3 Pa)); conditions: reference: Heal et al. (1995)
[12] = Henry solubility constant Hcp at 323 K (mol/(m3 Pa)); conditions: reference: Dallos et al. (1983)
[13] = Henry solubility constant Hcp at 353 K (mol/(m3 Pa)); conditions: reference: St-Pierre et al. (2014)

[Cl][Hg][Cl] [mercury dichloride]
Henry solubility constant Hcp at 333 K [1]: 1000

ClBr [bromine chloride]
Henry solubility constant Hcp at 290 K [2]: 0.015
Henry solubility constant Hcp at 275 K [3]: < 0.062
Henry solubility constant Hcp ([4]; reference: Bartlett and Margerum (1999)): 0.0093

O=C=S [carbon oxide sulfide]
Henry solubility constant Hcp at 287 K [5]: 0.00034
Henry solubility constant Hcp ([4]; reference: De Bruyn et al. (1995b)): 0.00022
Henry solubility constant Hcp ([4]; reference: Stock and Kuß (1917)): 0.00024
Henry solubility constant Hcp ([4]; reference: Winkler (1906)): 0.00021
Henry solubility constant Hcp ([4]; reference: Winkler (1907)): 0.00021

CCCC(C)=O [2-pentanone]
Henry solubility constant Hcp at 313 K [6]: 0.11
Henry solubility constant Hcp at 301 K [7]: 0.092
Henry solubility constant Hcp ([4]; reference: Chai et al. (2005)): 0.1
Henry solubility constant Hcp ([4]; reference: Hawthorne et al. (1985)): 0.09
Henry solubility constant Hcp ([4]; reference: Hovorka et al. (2019)): 0.13
Henry solubility constant Hcp ([4]; reference: Ji and Evans (2007)): 0.16
Henry solubility constant Hcp ([4]; reference: Kim et al. (2000)): 0.11
Henry solubility constant Hcp ([4]; reference: Straver and de Loos (2005)): 0.086
Henry solubility constant Hcp ([4]; reference: Vitenberg et al. (1974)): 0.17

O=O [oxygen]
Henry solubility constant Hcp at 310 K [8]: 1.1e-05
Henry solubility constant Hcp at 273 K [9]: 0.00014
Henry solubility constant Hcp at 293 K [10]: 1.2e-05
Henry solubility constant Hcp ([4]; reference: Benson et al. (1979)): 1.3e-05
Henry solubility constant Hcp ([4]; reference: Bohr and Bock (1891)): 1.3e-05
Henry solubility constant Hcp ([4]; reference: Bunsen (1855a)): 1.2e-05
Henry solubility constant Hcp ([4]; reference: Carpenter (1966)): 1.2e-05
Henry solubility constant Hcp ([4]; reference: Cosgrove and Walkley (1981)): 1.3e-05
Henry solubility constant Hcp ([4]; reference: Cramer (1980)): 1.3e-05
Henry solubility constant Hcp ([4]; reference: Fox (1909)): 1.3e-05
Henry solubility constant Hcp ([4]; reference: Geffcken (1904)): 1.2e-05
Henry solubility constant Hcp ([4]; reference: Millero et al. (2002a)): 1.2e-05
Henry solubility constant Hcp ([4]; reference: Millero et al. (2002b)): 1.2e-05
Henry solubility constant Hcp ([4]; reference: Morrison and Billett (1952)): 1.3e-05
Henry solubility constant Hcp ([4]; reference: Murray and Riley (1969)): 1.3e-05
Henry solubility constant Hcp ([4]; reference: Orcutt and Seevers (1937a)): 1.2e-05
Henry solubility constant Hcp ([4]; reference: Rettich et al. (1981)): 1.3e-05
Henry solubility constant Hcp ([4]; reference: Rettich et al. (2000)): 1.3e-05
Henry solubility constant Hcp ([4]; reference: Sherwood et al. (1991)): 1.3e-05
Henry solubility constant Hcp ([4]; reference: Shoor et al. (1969)): 1.2e-05
Henry solubility constant Hcp ([4]; reference: Timofejew (1890)): 1.2e-05
Henry solubility constant Hcp ([4]; reference: Winkler (1891b)): 1.3e-05

Nc1ccccc1 [aminobenzene]
Henry solubility constant Hcp at 283 K [11]: 1.2
Henry solubility constant Hcp at 323 K [12]: 1.1
Henry solubility constant Hcp ([4]; reference: Jayasinghe et al. (1992)): 5

O=S=O [sulfur dioxide]
Henry solubility constant Hcp at 353 K [13]: 0.4
Henry solubility constant Hcp ([4]; reference: Johnstone and Leppla (1934)): 0.012
Henry solubility constant Hcp ([4]; reference: Schoenfeld (1855)): 0.014

Reference: Sander's compilation of Henry's law constants
